Assay results: patent US20100093811A1 (priority 2007, published 2010)
Read-outs that look alike come from different tables or passages of the source.

Columns and labels:
[1] = test system: acute HIV infection of T-lymphoid cells; assay: Assay for inhibition of HIV replication (spread assay); type: cell-based, HIV-1
Method: • Assay for Inhibition of HIV Replication
Assays for the inhibition of acute HIV infection of T-lymphoid cells were conducted in accordance with Vacca, J. P. et al., Proc. Natl. Acad. Sci. USA 1994, 91: 4096.

wild-type HIV-1 protease = wild-type HIV-1 protease (Human immunodeficiency virus type 1 group M subtype B, UniProt P04585); assay: Assay for inhibition of microbial expressed HIV protease; type: biochemical
In short: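 E. coli-expressed protease (5 pM) preincubated with inhibitor 30 min at room temperature in 50 mM sodium acetate pH 5.5, 100 mM NaCl, 0.1% BSA. Substrate Val-Ser-Gln-Asn-(betanapthyl)Ala-Pro-Ile-Val at 440 micromolar, 1 h at 30° C; acid-quenched, product peak area by C18 HPLC gives inhibition.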

[2] = Human immunodeficiency virus 1, T-lymphoid, read-out: Spread - IC95
[3] = wild-type HIV-1 protease expressed in E. coli, peptide substrate, pH 5.5, read-out: Enzyme Inhibition - IC50

Row | Compound | IC95 [1, 2] | IC50 (wild-type HIV-1 protease; [3]) | IC95 ([1]; Human immunodeficiency virus 1, T-lymphoid, read-out: Spread - IC95 (nM)) | IC50 (wild-type HIV-1 protease) | IC95 ([1]; inhibition of HIV-1 replication, 10% FBS, read-out: Spread - IC95)
1 | COC(=O)N[C@@H](Cc1ccccc1Br)C(=O)N[C@@H](C)CCC[C@@H](CO)N(CC(C)C)S(=O)(=O)c1ccc(CO)cc1 [Example G12, 2-bromo-N-{(1S,5S)-6-hydroxy-5-[{[4-(hydroxymethyl)phenyl]sulfonyl}(isobutyl)amino]-1-methylhexyl}-Nα-(methoxycarbonyl)-L-phenylalaninamide] | 15 nM | 0.055 nM | – | – | –
2 | COC(=O)N[C@@H](Cc1ccccc1Br)C(=O)N[C@@H](C)CCC[C@@H](CO)N(C(C)C)S(=O)(=O)c1ccc(CO)cc1 [Example G13, 2-bromo-N-{(1S,5S)-6-hydroxy-5-[{[4-(hydroxymethyl)phenyl]sulfonyl}(isopropyl)amino]-1-methylhexyl}-Nα-(methoxycarbonyl)-L-phenylalaninamide] | 71 nM | 0.291 nM | – | – | –
3 | COC(=O)N[C@H](C(=O)N[C@@H](C)CCC[C@@H](CO)N(CCCF)S(=O)(=O)c1ccc(CO)cc1)C(c1ccccc1)c1ccccc1 [Example G14, N-[(1S,5S)-5-((3-fluoropropyl){[4-(hydroxymethyl)phenyl]sulfonyl}amino)-6-hydroxy-1-methythexyl]-Nα-(methoxycarbonyl)-β-phenyl-L-phenylalaninamide] | 16 nM | 0.01 nM | – | – | –
4 | COC(=O)N[C@@H](Cc1ccccc1Br)C(=O)N[C@@H](C)CCC[C@@H](CO)N(C(C)C)S(=O)(=O)c1ccc(N)cc1 [Example G15, N-{(1S,SS)-5-[[(4-aminophenyl)sulfonyl](isopropyl)amino]-6-hydroxy-1-methylhexyl}-2-bromo-Nα-(methoxycarbonyl)-L-phenylalaninamide] | 77 nM | 0.584 nM | – | – | –
5 | COC(=O)N[C@H](C(=O)N[C@@H](C)CCC[C@@H](CO)N(CC(C)C)S(=O)(=O)c1ccc(CO)cc1)C(c1ccccc1)c1ccccc1 [Example G16, N-{(1S,5S)-6-hydroxy-5-[{[4-(hydroxymethyl)phenyl]sulfonyl}(isobutyl)amino]-1-methylhexyl}-Nα-(methoxycarbonyl)-β-phenyl-L-phenylalaninamide] | 8 nM | 0.01 nM | – | – | –
6 | COC(=O)N[C@H](C(=O)N[C@@H](C)CCC[C@@H](CO)N(C1CCC1)S(=O)(=O)c1ccc(CO)cc1)C(c1ccccc1)c1ccccc1 [Example G17, N-[(1S,5S)-5-(cyclobutyl{[4-(hydroxymethyl)phenyl]sulfonyl}amino)-6-hydroxy-1-methylhexyl]-Nα-(methoxycarbonyl)-β-phenyl-L-phenylalaninamide] | 137 nM | 0.077 nM | – | – | –
7 | CC[C@@H](CCC[C@@H](CO)N(C(C)C)S(=O)(=O)c1ccc(N)cc1)NC(=O)[C@@H](NC(=O)OC)C(c1ccccc1)c1ccccc1 [Example G18, N-{(1S,5S)-5-[[(4-aminophenyl)sulfonyl](isopropyl)amino]-1-ethyl-6-hydroxyhexyl}-Nα-(methoxycarbonyl)-β-phenyl-L-phenylalaninamide] | 199 nM | 0.755 nM | – | – | –
8 | CC[C@@H](CCC[C@@H](CO)N(C(C)C)S(=O)(=O)c1ccc(CO)cc1)NC(=O)[C@@H](NC(=O)OC)C(c1ccccc1)c1ccccc1 [Example G19, N-{(1S,5S)-1-ethyl-6-hydroxy-5-[{[4-(hydroxymethyl)phenyl]sulfonyl}(isopropyl)amino]hexyl}-Nα-(methoxycarbonyl)-β-phenyl-L-phenylalaninamide] | 43 nM | 0.076 nM | – | – | –
9 | CCCN([C@H](CO)CCC[C@@H](NC(=O)[C@@H](NC(=O)OC)C(c1ccccc1)c1ccccc1)C(F)(F)F)S(=O)(=O)c1ccc(N)cc1 [Example H1, N-[(1R,5S)-5-[[(4-aminophenyl)sulfonyl](propyl)amino]-6-hydroxy-1-(trifluoromethyl)hexyl]-Nα-(methoxycarbonyl)-β-phenyl-L-phenylalaninamide] | – | 0.022 nM | 14 nM | – | –
10 | COC(=O)N[C@H](C(=O)N[C@H](CCC[C@@H](CO)N(CCC(C)C)S(=O)(=O)c1ccc(N)cc1)C(F)(F)F)C(c1ccccc1)c1ccccc1 [Example H2, N-[(1R,5S)-5-[[(4-aminophenyl)sulfonyl](3-methylbutyl)amino]-6-hydroxy-1-(trifluoromethyl)hexyl]-Nα-(methoxycarbonyl)-β-phenyl-L-phenylalaninamide] | 4 nM | – | – | 0.01 nM | –
11 | COC(=O)N[C@H](C(=O)N[C@H](CCC[C@@H](CO)N(C(C)C)S(=O)(=O)c1ccc(N)cc1)C(F)(F)F)C(c1ccccc1)c1ccccc1 [Example H3, N-[(1R,55)-5-[[(4-aminophenyl)sulfonyl](isopropyl)amino]-6-hydroxy-1-(trifluoromethyl)hexyl]-Nα-(methoxycarbonyl)-β-phenyl-L-phenylalaninamide] | – | 0.076 nM | – | – | 18 nM
12 | CCN([C@H](CO)CCC[C@@H](NC(=O)[C@@H](NC(=O)OC)C(c1ccccc1)c1ccccc1)C(F)(F)F)S(=O)(=O)c1ccc(N)cc1 [Example H4, N-[(1R,5S)-5-[[(4-aminophenyl)sulfonyl](ethyl)amino]-6-hydroxy-1-(trifluoromethyl)hexyl]-Nα-(methoxycarbonyl)-β-phenyl-L-phenylalaninamide] | 29 nM | – | – | 0.173 nM | –
13 | COC(=O)N[C@H](C(=O)N[C@H](CCC[C@@H](CO)N(CC(C)C)S(=O)(=O)c1ccc(N)cc1)C(F)(F)F)C(c1ccccc1)c1ccccc1 [Example H5, N-[(1R,5S)-5-[[(4-aminophenyl)sulfonyl](isobutyl)amino]-6-hydroxy-1-(trifluoromethyl)hexyl]-Nα-(methoxycarbonyl)-β-phenyl-L-phenylalaninamide] | 7 nM | – | – | 0.02 nM | –
14 | COC(=O)N[C@H](C(=O)N[C@H](CCC[C@@H](CO)N(C)S(=O)(=O)c1ccc(N)cc1)C(F)(F)F)C(c1ccccc1)c1ccccc1 [Example H6, N-[(1R,5S)-5-[[(4-aminophenyl)sulfonyl](methyl)amino]-6-hydroxy-1-(trifluoromethyl)hexyl]-Nα-(methoxycarbonyl)-β-phenyl-L-phenylalaninamide] | 138 nM | – | – | 1.01 nM | –
15 | COC(=O)N[C@@H](Cc1ccccc1Cl)C(=O)N[C@H](CCC[C@@H](CO)N(CC(C)C)S(=O)(=O)c1ccc(CO)cc1)C1CC1 [Example I1, 2-chloro-N-{(1R,5S)-1-cyclopropyl-6-hydroxy-5-[{[4-(hydroxymethyl)phenyl]sulfonyl}-(isobutyl)amino]hexyl}-Nα-(methoxycarbonyl)-L-phenylalaninamide] | 155 nM | 0.634 nM | – | – | –
16 | COC(=O)N[C@@H](Cc1ccccc1Cl)C(=O)N[C@H](CCC[C@@H](CO)N(C(C)C)S(=O)(=O)c1ccc(CO)cc1)C1CC1 [Example I2, 2-chloro-N-{(1R,5S)-1-cyclopropyl-6-hydroxy-5-[{[4-(hydroxymethyl)phenyl]sulfonyl}(isopropyl)amino]hexyl}-Nα-(methoxycarbonyl)-L-phenylalaninamide] | 422 nM | 2.25 nM | – | – | –
17 | COC(=O)N[C@H](C(=O)N[C@H](CCC[C@@H](CO)N(C(C)C)S(=O)(=O)c1ccc(CO)cc1)C1CC1)C(c1ccccc1)c1ccccc1 [Example I3, N-{(1R,5S)-1-cyclopropyl-6-hydroxy-5-[{[4-(hydroxymethyl)phenyl]sulfonyl}(isopropyl)amino]hexyl}-Nα-(methoxycarbonyl)-β-phenyl-L-phenylalaninamide] | 50 nM | 0.134 nM | – | – | –
18 | CCCN([C@H](CO)CCC[C@@H](NC(=O)[C@@H](NC(=O)OC)C(c1ccccc1)c1ccccc1)C1CC1)S(=O)(=O)c1ccc(CO)cc1 [Example I4, N-{(1R,5S)-1-cyclopropyl-6-hydroxy-5-[{[4-(hydroxymethyl)phenyl]sulfonyl}(propyl)amino]hexyl}-Nα-(methoxycarbonyl)-β-phenyl-L-phenylalaninamide] | 29 nM | 0.058 nM | – | – | –
19 | CCN([C@H](CO)CCC[C@@H](NC(=O)[C@@H](NC(=O)OC)C(c1ccccc1)c1ccccc1)C1CC1)S(=O)(=O)c1ccc(CO)cc1 [Example I5, N-[(1R,5S)-1-cyclopropyl-5-(ethyl{[4-(hydroxymethyl)phenyl]sulfonyl}amino)-6-hydroxyhexyl]-Nα-(methoxycarbonyl)-β-phenyl-L-phenylalaninamide] | 85 nM | 0.011 nM | – | – | –
20 | COC(=O)N[C@H](C(=O)N[C@H](CCC[C@@H](CO)N(C)S(=O)(=O)c1ccc(CO)cc1)C1CC1)C(c1ccccc1)c1ccccc1 [Example I6, N-{(1R,5S)-1-cyclopropyl-6-hydroxy-5-[{[4-(hydroxymethyl)phenyl]sulfonyl}(methyl)amino]hexyl}-Nα-(methoxycarbonyl)-β-phenyl-L-phenylalaninamide] | 187 nM | 1.03 nM | – | – | –
21 | CCCN([C@H](CO)CCC[C@@H](NC(=O)[C@@H](NC(=O)OC)C(c1ccccc1)c1ccccc1)C1CC1)S(=O)(=O)c1ccc(N)cc1 [Example I7, N-{(1R,5S)-5-[[(4-aminophenyl)sulfonyl](propyl)amino]-1-cyclopropyl-6-hydroxyhexyl}-Nα-(methoxycarbonyl)-β-phenyl-L-phenylalaninamide] | 43 nM | 0.206 nM | – | – | –
22 | COC(=O)N[C@H](C(=O)N[C@H](CCC[C@@H](CO)N(C(C)C)S(=O)(=O)c1ccc(N)cc1)C1CC1)C(c1ccccc1)c1ccccc1 [Example I8, N-{(1R,5S)-5-[[(4-aminophenyl)sulfonyl](isopropyl)amino]-1-cyclopropyl-6-hydroxyhexyl}-Nα-(methoxycarbonyl)-β-phenyl-L-phenylalaninamide] | 43 nM | 0.346 nM | – | – | –
